Measurements as given in patent publication US10471046B2, “Method for treating, preventing, or reducing the risk of skin infection” (Melinta Subsidiary Corp., priority 2014, dated 2019).
≈ marks a conversion by molar mass, not a printed value. Read-outs that look alike come from different tables or passages of the source.

Key:
P. granulosum [1] = experiment: Agar dilution MIC (CLSI reference method); type: cell-based
F. magna [2] = experiment: Broth microdilution MIC; type: cell-based; details: Finegoldia magna, ATCC15794; F. magna ATCC 15794
[3] = type: physicochemical; details: radezolid salt forms in HPLC grade water, ambient temperature; listed as Free base
P. acnes = experiment: Agar dilution MIC (CLSI reference method); type: cell-based; details: for MIC: Cutibacterium acnes
G. vaginalis [4] = experiment: Broth microdilution MIC; type: cell-based; details: for MIC: Gardnerella vaginalis
all organisms = experiment: Agar dilution MIC, range over the isolates tested; type: cell-based; details: read-out: agar dilution MICs for all organisms
Legionella pneumophila = details: cited from earlier work
[5] = test system: mammalian cells (e.g., defense cells, macrophages, lung cells, and non-phagocytic cells); details: cited from earlier work
[6] = Human exposure (AUC 0-24); details: in vivo; human @ 300 mg dose
F. magna [7] = experiment: Agar dilution MIC (CLSI reference method); type: cell-based
Listeria monocytogenes = details: cited from earlier work
P. granulosum [8] = experiment: Broth microdilution MIC; type: cell-based
G. vaginalis [9] = experiment: Agar dilution MIC (CLSI reference method); type: cell-based; details: for MIC: Gardnerella vaginalis
B. fragilis [10] = experiment: Agar dilution MIC (CLSI reference method); type: cell-based; details: Bacteroides fragilis, ATCC25285; B. fragilis ATCC 25285
[11] = Long-term rat safety study; type: in vivo
Excerpt: There was 100% survival in all dose groups.

B. thetaiotaomicron [12] = experiment: microbe, parasite or virus in culture; type: cell-based; details: Bacteroides thetaiotaomicron, ATCC29741; B. thetaiotaomicron ATCC 29741; read-out: MIC, agar dilution
B. thetaiotaomicron [13] = experiment: microbe, parasite or virus in culture; type: cell-based; details: Bacteroides thetaiotaomicron, ATCC29741; B. thetaiotaomicron ATCC 29741; read-out: MIC, broth microdilution
Enterococcus faecium = experiment: MIC against ribosome-based resistance phenotypes; type: cell-based; details: Enterococcus faecium A6349; VanA + Lin-R (G2576U); read-out: Minimum Inhibitory Concentration (MIC)
Excerpt: (§1) Furthermore, the antibiotic compounds can be assayed for anti-proliferative or anti-infective properties on a cellular level. For example, where the target organism is a microorganism, the activity of compounds of interest can be assayed by growing the microorganisms of interest in media either containing or lacking the compound. Growth inhibition can be indicative that the molecule could be acting as a protein synthesis inhibitor. […] For this purpose, a panel of bacterial strains can be assembled to include a variety of target pathogenic species, some containing resistance mechanisms that have been characterized. Use of such a panel of organisms permits the determination of structure-activity relationships not only in regards to potency and spectrum, but also with a view to obviating resistance mechanisms. The assays can be performed in microtiter trays according to conventional methodologies as published by The National Committee for Clinical Laboratory Standards (NCCLS) guidelines (NCCLS. M7-A5-Methods for Dilution Antimicrobial Susceptibility Tests for Bacteria That Grow Aerobically; Approved Standard-Fifth Edition. NCCLS Document M100-S12/M7 (ISBN 1-56238-394-9)).

Staphylococcus aureus = experiment: MIC against ribosome-based resistance phenotypes; type: cell-based; details: read-out: Minimum Inhibitory Concentration (MIC)
Excerpt: as §1, with “mechanisms.” for “mechanisms. The assays can be performed in microtiter trays according to conventional methodologies as published by The National Committee for Clinical Laboratory Standards (NCCLS) guidelines (NCCLS. M7-A5-Methods for Dilution Antimicrobial Susceptibility Tests for Bacteria That Grow Aerobically; Approved Standard-Fifth Edition. NCCLS Document M100-S12/M7 (ISBN 1-56238-394-9)).”

Enterococcus faecalis = experiment: MIC against ribosome-based resistance phenotypes; type: cell-based; details: read-out: Minimum Inhibitory Concentration (MIC)
Excerpt: as §1, with “mechanisms.” for “mechanisms. The assays can be performed in microtiter trays according to conventional methodologies as published by The National Committee for Clinical Laboratory Standards (NCCLS) guidelines (NCCLS. M7-A5-Methods for Dilution Antimicrobial Susceptibility Tests for Bacteria That Grow Aerobically; Approved Standard-Fifth Edition. NCCLS Document M100-S12/M7 (ISBN 1-56238-394-9)).”

B. fragilis [14] = experiment: Broth microdilution MIC; type: cell-based; details: Bacteroides fragilis, ATCC25285; B. fragilis ATCC 25285
S. aureus = experiment: Broth microdilution MIC; type: cell-based; details: Staphylococcus aureus, ATCC29213; S. aureus ATCC 29213
[15] = Radezolid levels in granuloma pouch and plasma; type: in vivo; details: FIGS. 3-4
[16] = ATCC14018, G. vaginalis ATCC 14018
[17] = ATCC49145, G. vaginalis ATCC 49145

CC(=O)NC[C@H]1CN(c2ccc(-c3ccc(CNCc4cnn[nH]4)cc3)c(F)c2)C(=O)O1 [Radezolid, (5S)—N-[3-(2-Fluoro-4′-{[(1H-[1,2,3]triazol-4-ylmethyl)-amino]-methyl}-biphenyl-4-yl)-2-oxo-oxazolidin-5-ylmethyl]-acetamide]
agar dilution MIC, fold more potent than linezolid (P. granulosum [1]; P. granulosum): 8 fold
MIC (P. granulosum [1]; P. granulosum ATCC 25746): 0.25 µg/mL (≈ 0.57 µM)
MIC (F. magna [2]): 0.125 µg/mL (≈ 0.285 µM)
solubility [3]: <20 µg/mL
MIC (P. acnes; ATCC11827, P. acnes ATCC 11827): 0.125 µg/mL (≈ 0.285 µM)
MIC (P. acnes; ATCC11828, P. acnes ATCC 11828): 0.125 µg/mL (≈ 0.285 µM)
MIC (P. acnes; ATCC29399, P. acnes ATCC 29399): 0.125 µg/mL (≈ 0.285 µM)
agar dilution MIC, fold more potent than linezolid (P. acnes; P. acnes): 4 fold
broth microdilution, fold more active than linezolid (G. vaginalis [4]; G. vaginalis 49145): 8 fold
MIC (G. vaginalis [4]; [16]): 0.125 µg/mL (≈ 0.285 µM)
MIC (G. vaginalis [4]; [17]): 0.06 µg/mL (≈ 0.137 µM)
MIC (all organisms): 0.06 to 1 µg/mL (≈ 0.137 to 2.28 µM)
intracellular killing (Legionella pneumophila): kills
fraction accumulating in the cytosol of cells ([5]; cytosol): Approximately 60%
fraction accumulating in the lysosome ([5]; lysosome): approximately 40%
accumulation in mammalian cells, extent greater than linezolid ([5]; relative to linezolid): 17 fold
AUC(0-t) [6]: 3330 ng·h/mL
agar dilution MIC, fold more potent than linezolid (F. magna [7]; F. magna): 4 fold
difference between broth and agar dilution MICs (F. magna [7]; F. magna): 4 fold
MIC (F. magna [7]; Finegoldia magna, ATCC15794, F. magna ATCC 15794): 0.5 µg/mL (≈ 1.14 µM)
intracellular killing (Listeria monocytogenes): kills
broth microdilution, fold more active than linezolid (P. granulosum [8]; P. granulosum): 8 fold
MIC (P. granulosum [8]; P. granulosum ATCC 25746): 0.125 µg/mL (≈ 0.285 µM)
agar dilution MIC, fold more potent than linezolid (G. vaginalis [9]; G. vaginalis): 8 fold
MIC (G. vaginalis [9]; [16]): 0.06 µg/mL (≈ 0.137 µM)
MIC (G. vaginalis [9]; [17]): 0.06 µg/mL (≈ 0.137 µM)
MIC (B. fragilis [10]): 4 µg/mL (≈ 9.12 µM)
survival ([11]; both, rat, in vivo): 100%
Safety margin (Rat NOAEL AUC/Human efficacious AUC) ([11]; calculated from rat and human AUC 0-24): 30.8x
AUC(0-t) ([11]; male, rat, in vivo, 200 mg/kg): 102000 ng·h/mL
changes in hematology, coagulation, clinical chemistry, or urinalysis ([11]; rat, in vivo): No test article-related changes
safety in long-term rat study ([11]; rat, in vivo): good safety
MIC (B. thetaiotaomicron [12]): > 8 µg/mL
MIC (B. thetaiotaomicron [13]): 8 µg/mL (≈ 18.2 µM)
MIC (Enterococcus faecium): 0.5 µg/mL
MIC (Staphylococcus aureus; ATCC29213, Staphylococcus aureus ATCC29213, phenotype QC): 1 µg/mL (≈ 2.28 µM)
MIC (Staphylococcus aureus; Staphylococcus aureus 01A1095, Mac-R): 1 µg/mL (≈ 2.28 µM)
MIC (Staphylococcus aureus; Staphylococcus aureus A7820, Lin-R (G2576U) + Mac-R (ErmC)): 16 µg/mL
MIC (Enterococcus faecalis; ATCC29212, Enterococcus faecalis ATCC29212, phenotype QC): 0.25 µg/mL (≈ 0.57 µM)
MIC (Enterococcus faecalis; ATCC29212, Enterococcus faecalis ATCC29212-P5, Lin-R (G2576U)): 1 µg/mL (≈ 2.28 µM)
MIC (Enterococcus faecalis; Enterococcus faecalis 1069, VanB): 0.25 µg/mL (≈ 0.57 µM)
MIC (B. fragilis [14]): 2 µg/mL (≈ 4.56 µM)
MIC (S. aureus): 2 µg/mL (≈ 4.56 µM)
levels in granuloma pouch versus plasma over time [15]: remain high in granuloma pouch even as they decline in the plasma
